According to patent publication US7071293B1, “Alpha helical peptides with broad spectrum antimicrobial activity that are insensitive to salt” (priority 1999, dated 2006):
In brackets after ≈: the same amount, converted by molar mass. Where two headings read alike, the source gives them in different places. Ends that are not written are not given here.

Key:
B. cepacia ATCC 25416 = experiment: Two stage radial diffusion assay (MIC); assay type: cell-based; parameters: unit not given here; details: underlay 0 mM NaCl
N. gonorrhoeae = experiment: Two stage radial diffusion assay (MIC); assay type: cell-based; parameters: unit not given here; details: done only at 100 mM NaCl
L. monocytogenes EGD = experiment: Two stage radial diffusion assay (MIC); assay type: cell-based; parameters: unit not given here; details: underlay 0 mM NaCl
E. coli ML-35p = details: for E. coli ML-35p MIC, 0 mM NaCl: underlay 0 mM NaCl; for MIC E. coli [NaCl] High: high salt underlay (10 mM sodium phosphate buffer +100 mM NaCl, pH 7.4); for MIC E. coli [NaCl] High / MIC E. coli [NaCl] Low: Table 13; for MIC E. coli [NaCl] Low: low salt underlay (10 mM sodium phosphate buffer, pH 7.4)
P. aeruginosa MR 3007 = details: for MIC P. aeruginosa [NaCl] High / MIC P. aeruginosa [NaCl] Low: MR 3007, pH 7.4
S. aureus 930918-3 = details: for MIC S. aureus [NaCl] High / MIC S. aureus [NaCl] Low: 930918-3, pH 7.4
MRSA ATCC 33591 = details: for MIC MRSA [NaCl] High / MIC MRSA [NaCl] Low: ATCC 33591, pH 7.4
E. coli DH5α = details: for EC50: DH5α; for EC50 E. coli DH5α: ionic strength 25 mM, avg ± sem
E. coli DH-5α = details: DH-5α
[1] = ionic strength 25 mM, avg ± sem
[2] = ionic strength 175 mM, avg ± sem

CC[C@H](C)[C@H](N)C(=O)N[C@@H](CCCNC(=N)N)C(=O)N[C@@H](CCCNC(=N)N)C(=O)N[C@H](C(=O)N[C@H](C(=O)N[C@@H](CCCNC(=N)N)C(=O)N[C@@H](CCCCN)C(=O)N[C@H](C(=O)N[C@H](C(=O)N[C@@H](Cc1c[nH]cn1)C(=O)N[C@H](C(=O)N[C@H](C(=O)N[C@@H](CCCCN)C(=O)N[C@@H](CCCCN)C(=O)O)[C@@H](C)CC)[C@@H](C)CC)[C@@H](C)CC)[C@@H](C)CC)[C@@H](C)CC)[C@@H](C)CC [SMAP29X-14D]
EC50 P. aeruginosa PAO1 (P. aeruginosa PAO1; [1]): 0.65 ± 0.06 µg/mL (≈ 0.361 µM) | EC50 P. aeruginosa PAO1 (P. aeruginosa PAO1; [2]): 7.11 ± 2.40 µg/mL (≈ 3.95 µM)

CC[C@H](C)[C@H](NC(=O)[C@H](CCCNC(=N)N)NC(=O)[C@H](CCCNC(=N)N)NC(=O)[C@@H](NC(=O)[C@@H](N)CC(N)=O)[C@@H](C)CC)C(=O)N[C@H](C(=O)N[C@@H](CCCNC(=N)N)C(=O)N[C@@H](CCCCN)C(=O)N[C@H](C(=O)N[C@H](C(=O)N[C@@H](Cc1c[nH]cn1)C(=O)N[C@H](C(=O)N[C@H](C(=O)N[C@@H](CCCCN)C(=O)N[C@@H](CCCCN)C(=O)N[C@@H](Cc1ccc(O)cc1)C(N)=O)[C@@H](C)CC)[C@@H](C)CC)[C@@H](C)CC)[C@@H](C)CC)[C@@H](C)CC [SMAP29X-16C]
EC50 P. aeruginosa PAO1 (P. aeruginosa PAO1; [1]): 0.65 µg/mL (≈ 0.313 µM) | EC50 P. aeruginosa PAO1 (P. aeruginosa PAO1; [2]): 2.21 µg/mL (≈ 1.06 µM)

GLRKRLRKFRNKIKEKLKKIG [Peptide 19]
B. cepacia ATCC 25416 in underlays of low, normal and high salinity, 0 mM NaCl (B. cepacia ATCC 25416): >250 | N. gonorrhoeae F 62 (serum-sensitive) (N. gonorrhoeae; strain F 62 (serum-sensitive)): 0.6 | N. gonorrhoeae FA 19 (serum-resistant) (N. gonorrhoeae; strain FA 19 (serum-resistant)): >79.1 | L. monocytogenes in underlays of low, normal and high salinity, 0 mM NaCl (L. monocytogenes EGD): 0.3 | E. coli ML-35p MIC, 0 mM NaCl (E. coli ML-35p; Table 15): 2.3 µg/mL | P. aeruginosa MR-3007 MIC, 0 mM NaCl (P. aeruginosa MR 3007): 0.7 µg/mL | S. aureus 930918-3 MIC, 0 mM NaCl (S. aureus 930918-3): 1.8 µg/mL | MRSA ATCC 33591 MIC, 0 mM NaCl (MRSA ATCC 33591): 19.4 µg/mL

IRRIIRKIIHIIKK-NH2 [Peptide 13]
P. aeruginosa MR-3007 MIC, 0 mM NaCl (P. aeruginosa MR 3007): 0.84 ± 0.06 µg/mL | P. aeruginosa MR-3007 MIC, 175 mM NaCl (P. aeruginosa MR 3007): 19.7 ± 2.2 µg/mL | S. aureus 930918-3 MIC, 0 mM NaCl (S. aureus 930918-3): 1.03 ± 0.03 µg/mL | S. aureus 930918-3 MIC, 175 mM NaCl (S. aureus 930918-3): 5.93 ± 1.12 µg/mL | MRSA ATCC 33591 MIC, 0 mM NaCl (MRSA ATCC 33591): 2.39 ± 0.07 µg/mL | MRSA ATCC 33591 MIC, 175 mM NaCl (MRSA ATCC 33591): >79.1 µg/mL | P. aeruginosa PA-01 MIC, 0 mM NaCl (P. aeruginosa PA-01): 1.03 ± 0.08 µg/mL | P. aeruginosa PA-01 MIC, 175 mM NaCl (P. aeruginosa PA-01): 7.45 ± 0.87 µg/mL

IRRIIRKIIHIIKK-NH2 [SMAP29X-14C]
EC50 P. aeruginosa PAO1 (P. aeruginosa PAO1; [1]): 0.29 ± 0.04 µg/mL | EC50 P. aeruginosa PAO1 (P. aeruginosa PAO1; [2]): 1.21 ± 0.05 µg/mL

KIKEKLKKIGQKIQG [CAP18-15b]
EC50 P. aeruginosa PAO1 (P. aeruginosa PAO1; PAO1): >80 µg/mL | EC50 P. aeruginosa PAO1 (P. aeruginosa PAO1; [1]): 10.3 ± 0.3 µg/mL | EC50 (E. coli DH5α): 4.15 ± 1.04 µM | EC50 E. coli DH5α (E. coli DH5α): 7.23 ± 1.81 µg/mL | MIC E. coli [NaCl] High (E. coli ML-35p): >250 µg/mL | MIC E. coli [NaCl] Low (E. coli ML-35p): 1.6 µg/mL | MIC P. aeruginosa [NaCl] High (P. aeruginosa MR 3007): >250 µg/mL | MIC P. aeruginosa [NaCl] Low (P. aeruginosa MR 3007): 8.7 µg/mL | MIC S. aureus [NaCl] High (S. aureus 930918-3): >250 µg/mL | MIC S. aureus [NaCl] Low (S. aureus 930918-3): >250 µg/mL | MIC MRSA [NaCl] High (MRSA ATCC 33591): >250 µg/mL | MIC MRSA [NaCl] Low (MRSA ATCC 33591): >250 µg/mL

KIKEKLKKIGQKIQGLL [CAP18-17]
EC50 P. aeruginosa PAO1 (P. aeruginosa PAO1; PAO1): >25 µg/mL | EC50 P. aeruginosa PAO1 (P. aeruginosa PAO1; [1]): 2.33 ± 0.35 µg/mL | EC50 (E. coli DH5α): 1.27 ± 0.2 µM | EC50 E. coli DH5α (E. coli DH5α): 2.51 ± 0.38 µg/mL | MIC E. coli [NaCl] High (E. coli ML-35p): 1.9 µg/mL | MIC E. coli [NaCl] Low (E. coli ML-35p): 9.7 µg/mL | MIC P. aeruginosa [NaCl] High (P. aeruginosa MR 3007): >250 µg/mL | MIC P. aeruginosa [NaCl] Low (P. aeruginosa MR 3007): 5.1 µg/mL | MIC S. aureus [NaCl] High (S. aureus 930918-3): >250 µg/mL | MIC S. aureus [NaCl] Low (S. aureus 930918-3): >250 µg/mL | MIC MRSA [NaCl] High (MRSA ATCC 33591): >250 µg/mL | MIC MRSA [NaCl] Low (MRSA ATCC 33591): >250 µg/mL

KNIRRIIRKIIHIIKKYG [SMAP29X-18C]
EC50 P. aeruginosa PAO1 (P. aeruginosa PAO1; [1]): 0.24 ± 0.01 µg/mL | EC50 P. aeruginosa PAO1 (P. aeruginosa PAO1; [2]): 0.61 ± 0.12 µg/mL

KNIRRIIRKIIHIIKKYG-NH2 [SMAP29X-18B]
EC50 P. aeruginosa PAO1 (P. aeruginosa PAO1; [1]): 0.16 ± 0.01 µg/mL | EC50 P. aeruginosa PAO1 (P. aeruginosa PAO1; [2]): 0.54 ± 0.05 µg/mL

KNLRRIIRKIIHIIKKYG-NH2 [SMAP29X-18A]
EC50 P. aeruginosa PAO1 (P. aeruginosa PAO1; [1]): 0.22 ± 0.00 µg/mL | EC50 P. aeruginosa PAO1 (P. aeruginosa PAO1; [2]): 0.49 ± 0.02 µg/mL

KNLRRIIRKIIHIIKKYGPTILRIIRIIG-NH2 [SMAP29X]
EC50 P. aeruginosa PAO1 (P. aeruginosa PAO1; [1]): 2.74 ± 0.65 µg/mL | EC50 P. aeruginosa PAO1 (P. aeruginosa PAO1; [2]): 4.51 ± 0.24 µg/mL | MIC E. coli [NaCl] High (E. coli ML-35p): 0.8 µg/mL | MIC E. coli [NaCl] Low (E. coli ML-35p): 1.5 µg/mL | MIC P. aeruginosa [NaCl] High (P. aeruginosa MR 3007): 1.0 µg/mL | MIC P. aeruginosa [NaCl] Low (P. aeruginosa MR 3007): 2.6 µg/mL | MIC S. aureus [NaCl] High (S. aureus 930918-3): 1.5 µg/mL | MIC S. aureus [NaCl] Low (S. aureus 930918-3): 1.6 µg/mL | MIC MRSA [NaCl] High (MRSA ATCC 33591): 1.0 µg/mL | MIC MRSA [NaCl] Low (MRSA ATCC 33591): 6.2 µg/mL

LRKFRNKIKEKLKKIGQKIQG [CAP18-21b]
EC50 P. aeruginosa PAO1 (P. aeruginosa PAO1; [1]): 1.83 ± 0.51 µg/mL | EC50 P. aeruginosa PAO1 (P. aeruginosa PAO1; [2]): 3.45 ± 0.02 µg/mL | EC50 (E. coli DH5α): 1.17 ± 0.13 µM | EC50 E. coli DH5α (E. coli DH5α): 2.99 ± 0.33 µg/mL | MIC E. coli [NaCl] High (E. coli ML-35p): 0.5 µg/mL | MIC E. coli [NaCl] Low (E. coli ML-35p): 2.3 µg/mL | MIC P. aeruginosa [NaCl] High (P. aeruginosa MR 3007): 23.5 µg/mL | MIC P. aeruginosa [NaCl] Low (P. aeruginosa MR 3007): 2.9 µg/mL | MIC S. aureus [NaCl] High (S. aureus 930918-3): >250 µg/mL | MIC S. aureus [NaCl] Low (S. aureus 930918-3): 16.3 µg/mL | MIC MRSA [NaCl] High (MRSA ATCC 33591): >250 µg/mL | MIC MRSA [NaCl] Low (MRSA ATCC 33591): 10.3 µg/mL

LRRIIRKIIHIIK-NH2 [Peptide 15]
E. coli ML-35p MIC, 0 mM NaCl (E. coli ML-35p; Table 15): 0.64 ± 0.15 µg/mL | E. coli ML-35p MIC, 175 mM NaCl (E. coli ML-35p; underlay 175 mM NaCl, Table 15): 12.6 ± 2.8 µg/mL | P. aeruginosa MR-3007 MIC, 0 mM NaCl (P. aeruginosa MR 3007): 0.96 ± 0.08 µg/mL | P. aeruginosa MR-3007 MIC, 175 mM NaCl (P. aeruginosa MR 3007): 9.14 ± 4.81 µg/mL | S. aureus 930918-3 MIC, 0 mM NaCl (S. aureus 930918-3): 1.32 ± 0.22 µg/mL | S. aureus 930918-3 MIC, 175 mM NaCl (S. aureus 930918-3): 6.39 ± 1.12 µg/mL | MRSA ATCC 33591 MIC, 0 mM NaCl (MRSA ATCC 33591): 2.49 ± 0.27 µg/mL | MRSA ATCC 33591 MIC, 175 mM NaCl (MRSA ATCC 33591): 65.8 ± 13.3 µg/mL | E. coli DH-5α MIC, 0 mM NaCl (E. coli DH-5α): 0.82 ± 0.12 µg/mL | E. coli DH-5α MIC, 175 mM NaCl (E. coli DH-5α): 5.35 ± 1.87 µg/mL | P. aeruginosa PA-01 MIC, 0 mM NaCl (P. aeruginosa PA-01): 1.07 ± 0.19 µg/mL | P. aeruginosa PA-01 MIC, 175 mM NaCl (P. aeruginosa PA-01): 4.66 ± 1.57 µg/mL
